Key:
[1] = In vitro liver microsomal stability assay, mouse; type: in vitro ADME; conditions: mouse liver microsomes, final concentration 2.0 nM, with or without NADPH, within 60 minutes; read-out: Mouse liver microsomes t1/2
Protocol: (§1) Experiments on the stability of the compound of the present disclosure in liver microsomes were performed. The compounds to be tested (final concentration: 2.0 nM) were co-incubated with human/mouse liver microsomes with or without NADPH, and the concentration of compounds in the incubation supernatant was detected within 60 minutes.

[2] = In vitro liver microsomal stability assay, human; type: in vitro ADME; conditions: human liver microsomes, final concentration 2.0 nM, with or without NADPH, within 60 minutes; read-out: Human liver microsomes t1/2
Protocol: as §1

[3] = test system: TOV21G (ovarian cancer) cells; assay: In vitro cell proliferation inhibition assay (CellTiter-Glo), TOV21G; type: cell-based, human; conditions: 120 hours
Protocol: (§2) By detecting the effect of compound on cell activity in vitro in the tumor cell lines TOV21G (ovarian cancer) and MV4-11 (leukemia), the effect of compound inhibiting cell proliferation was studied in this assay.
(§3) TOV21G cells and MV4-11 cells were purchased from American Type Culture Collection (ATCC).
TOV21G cells were cultured in MCDB105/M199 medium (containing 15% […]), and used for testing when the cell confluence reaches 85% or more. Each well of a 96-well culture plate was inoculated with about 1000 cells, cultured for 24 hours, and treated with different concentrations (0-10 μM) of compound solution to be tested in triplex. Blank wells (contains medium only) and control wells (seeded cells was not treated with drug) were set. Cells were cultured for 120 hours, 40 μL Cell Titer-Glo solution (Promega, #G7573) were added to each well, incubated with shaking for 20 min in the dark, 100 μL solution was transferred from each well to a 96-well white plate (Corning, #3917), and the luminescence value was read by Biotek Synergy H1 multifunctional microplate reader.

MV4-11 (leukemia) cells = assay: In vitro cell proliferation inhibition assay (CellTiter-Glo), MV4-11; type: cell-based, human; conditions: MV4-11 cells
Protocol: as §2, §3
MV-4-11 cells were cultured in IMDM medium (containing 20% FBS), each well of a 96-well culture plate was inoculated with about 10000 cells, and treated with different concentrations (0-10 μM) of compounds to be tested in triplex. Blank wells (containing medium only) and control wells (inoculated with cells but not treated with drug) were set. Cells were cultured for 120 hours, 40 μL Cell Titer-Glo solution was added to each well, incubated with shaking for 20 min in the dark, 100 μL solution was transferred from each well to a 96-well white plate, and the luminescence value was read by Biotek Synergy H1 multifunctional microplate reader. Inhibition rate (%)=100%×(control well−test well)/(control well−blank well)

ATR kinase = ATR kinase (Homo sapiens (Human), UniProt Q13535); assay: ATR kinase activity assay (time-resolved fluorescence, p53 substrate phosphorylation); type: biochemical
Sequence of ATR kinase (Q13535 whole entry): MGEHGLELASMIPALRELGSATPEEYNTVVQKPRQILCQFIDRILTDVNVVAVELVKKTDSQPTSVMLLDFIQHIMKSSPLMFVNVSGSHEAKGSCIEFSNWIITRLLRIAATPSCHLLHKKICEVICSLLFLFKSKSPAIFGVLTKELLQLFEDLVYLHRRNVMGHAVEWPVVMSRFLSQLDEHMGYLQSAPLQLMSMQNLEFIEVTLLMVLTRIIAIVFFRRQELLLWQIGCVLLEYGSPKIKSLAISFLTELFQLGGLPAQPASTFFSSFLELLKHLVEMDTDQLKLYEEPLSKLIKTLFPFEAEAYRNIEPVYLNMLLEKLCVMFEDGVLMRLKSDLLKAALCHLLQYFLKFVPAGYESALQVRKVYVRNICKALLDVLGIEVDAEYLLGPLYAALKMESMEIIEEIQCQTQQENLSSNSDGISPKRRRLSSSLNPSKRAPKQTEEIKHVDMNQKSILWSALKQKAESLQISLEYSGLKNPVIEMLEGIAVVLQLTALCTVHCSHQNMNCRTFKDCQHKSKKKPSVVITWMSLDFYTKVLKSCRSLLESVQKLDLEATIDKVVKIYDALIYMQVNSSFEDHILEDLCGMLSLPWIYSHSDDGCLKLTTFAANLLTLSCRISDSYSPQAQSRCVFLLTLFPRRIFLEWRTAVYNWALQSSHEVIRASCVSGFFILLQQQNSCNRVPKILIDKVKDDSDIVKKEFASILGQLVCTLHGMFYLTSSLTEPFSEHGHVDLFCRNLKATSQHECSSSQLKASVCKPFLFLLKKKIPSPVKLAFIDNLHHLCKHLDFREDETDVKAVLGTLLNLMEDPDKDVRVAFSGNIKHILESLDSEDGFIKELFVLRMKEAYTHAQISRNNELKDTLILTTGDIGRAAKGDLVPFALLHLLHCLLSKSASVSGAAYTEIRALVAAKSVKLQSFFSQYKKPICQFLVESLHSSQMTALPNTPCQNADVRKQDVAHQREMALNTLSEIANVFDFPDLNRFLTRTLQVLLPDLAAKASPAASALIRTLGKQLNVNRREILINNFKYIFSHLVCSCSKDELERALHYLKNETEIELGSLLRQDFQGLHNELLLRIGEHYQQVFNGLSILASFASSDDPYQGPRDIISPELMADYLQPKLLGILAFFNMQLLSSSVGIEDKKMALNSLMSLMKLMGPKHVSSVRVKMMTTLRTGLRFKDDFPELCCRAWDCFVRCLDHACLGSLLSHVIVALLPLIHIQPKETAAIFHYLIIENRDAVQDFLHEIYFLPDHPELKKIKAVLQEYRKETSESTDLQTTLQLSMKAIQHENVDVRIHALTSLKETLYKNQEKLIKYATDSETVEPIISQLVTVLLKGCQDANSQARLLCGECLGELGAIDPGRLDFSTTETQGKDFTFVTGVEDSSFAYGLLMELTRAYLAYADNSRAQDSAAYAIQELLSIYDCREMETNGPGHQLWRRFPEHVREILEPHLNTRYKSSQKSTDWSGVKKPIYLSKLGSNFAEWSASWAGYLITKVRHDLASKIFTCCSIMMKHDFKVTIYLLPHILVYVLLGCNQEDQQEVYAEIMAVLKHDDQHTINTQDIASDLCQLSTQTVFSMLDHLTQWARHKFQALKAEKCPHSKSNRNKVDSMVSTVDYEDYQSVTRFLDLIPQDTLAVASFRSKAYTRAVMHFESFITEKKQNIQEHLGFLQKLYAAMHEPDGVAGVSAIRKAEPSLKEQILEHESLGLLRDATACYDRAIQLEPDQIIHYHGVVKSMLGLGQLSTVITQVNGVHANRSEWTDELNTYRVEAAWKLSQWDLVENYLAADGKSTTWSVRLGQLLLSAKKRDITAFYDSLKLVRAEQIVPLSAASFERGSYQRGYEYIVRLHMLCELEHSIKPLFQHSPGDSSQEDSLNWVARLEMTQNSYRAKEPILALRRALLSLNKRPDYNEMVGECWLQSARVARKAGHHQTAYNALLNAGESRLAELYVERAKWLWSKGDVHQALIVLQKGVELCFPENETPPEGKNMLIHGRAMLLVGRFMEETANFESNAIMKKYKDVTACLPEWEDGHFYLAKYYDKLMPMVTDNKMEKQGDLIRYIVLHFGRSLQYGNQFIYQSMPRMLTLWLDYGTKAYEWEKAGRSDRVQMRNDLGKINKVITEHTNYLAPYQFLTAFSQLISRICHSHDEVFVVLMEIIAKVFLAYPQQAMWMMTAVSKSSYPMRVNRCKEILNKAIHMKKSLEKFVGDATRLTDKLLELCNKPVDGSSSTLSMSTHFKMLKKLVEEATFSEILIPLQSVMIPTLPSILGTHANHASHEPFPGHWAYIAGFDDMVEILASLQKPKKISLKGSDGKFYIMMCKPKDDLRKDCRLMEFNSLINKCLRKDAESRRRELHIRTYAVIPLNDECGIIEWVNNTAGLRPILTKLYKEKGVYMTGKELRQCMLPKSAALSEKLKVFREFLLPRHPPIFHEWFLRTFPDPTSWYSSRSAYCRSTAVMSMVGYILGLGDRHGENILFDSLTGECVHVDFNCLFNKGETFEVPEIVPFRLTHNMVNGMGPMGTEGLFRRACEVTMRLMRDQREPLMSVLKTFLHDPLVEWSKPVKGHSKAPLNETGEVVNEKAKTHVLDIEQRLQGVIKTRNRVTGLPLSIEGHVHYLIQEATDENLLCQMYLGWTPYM
Sequence of ATR kinase (Q8WXE1 whole entry partner): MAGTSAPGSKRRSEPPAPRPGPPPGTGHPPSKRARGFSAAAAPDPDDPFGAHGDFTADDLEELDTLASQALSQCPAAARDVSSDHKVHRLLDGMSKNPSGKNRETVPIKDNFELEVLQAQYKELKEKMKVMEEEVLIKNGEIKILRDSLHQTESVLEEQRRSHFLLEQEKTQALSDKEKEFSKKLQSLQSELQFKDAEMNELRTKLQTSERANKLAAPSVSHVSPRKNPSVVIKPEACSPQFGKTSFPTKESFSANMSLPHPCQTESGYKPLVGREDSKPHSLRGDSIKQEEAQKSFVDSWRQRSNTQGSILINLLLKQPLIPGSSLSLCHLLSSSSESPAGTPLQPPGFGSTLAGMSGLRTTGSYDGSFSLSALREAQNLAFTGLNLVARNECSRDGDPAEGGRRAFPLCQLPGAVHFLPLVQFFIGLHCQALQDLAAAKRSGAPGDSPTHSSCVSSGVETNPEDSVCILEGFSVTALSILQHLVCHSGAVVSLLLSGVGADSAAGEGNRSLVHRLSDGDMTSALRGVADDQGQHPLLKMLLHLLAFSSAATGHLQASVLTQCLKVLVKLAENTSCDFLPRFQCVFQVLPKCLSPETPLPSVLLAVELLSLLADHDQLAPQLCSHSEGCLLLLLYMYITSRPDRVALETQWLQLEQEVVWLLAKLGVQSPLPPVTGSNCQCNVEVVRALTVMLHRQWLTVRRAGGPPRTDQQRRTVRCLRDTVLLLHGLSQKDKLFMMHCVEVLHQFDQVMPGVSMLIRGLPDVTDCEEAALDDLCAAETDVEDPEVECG
Protocol: Biotinylated protein derived from p53 (Eurofins, art. No.: 14-952) was phosphorylated with ATR kinase. The amount of phosphorylated protein was determined by time-resolved fluorescence in this assay. The amount of phosphorylated protein was detected by anti-p53-phospho-(serine 15)-K-specific antibody (Cisbio, art. No.: 61GSTDLA) and d2 labeled anti-GST antibody (Cisbio, art. No. 61P08KAE). Before the experiment, the following working solution was prepared as required: 1× reaction buffer (20 mM HEPES PH8.0, 1% glycerol, 0.01% Brij-35), dilution buffer (20 mM HEPES PH8.0, 1% glycerol, 0.01% Brij-35, 5 mM DTT and 1% BSA), stop solution (20 mM HEPES PH8.0, 1% glycerol, 0.01% Brij-35, 250 mM EDTA), detection buffer (50 mM HEPES pH7.0, 150 mM NaCl, 267 mM KF, 0.1% sodium cholate, 0.01% Tween-20, 0.0125% sodium azide). The reagents used above are purchased from Sigma or Invitrogen, except for those where the manufacturer was mentioned.
Operations are as follows:
4× gradient dilution of compound solutions was prepared with 1× reaction buffer to obtain 9 compound solutions of different concentrations, and 2.5 μL 4× gradient dilution of compound solutions was added to a 384-well analysis plate (784075, Greiner). 4× p53 substrate working solution (40 nM) was prepared with 1× reaction buffer, and 2.5 μL 4× p53 substrate working solution was added to the 384-well analysis plate. 4×ATR/ATRIP working solution (12.8 ng/μL) was prepared with dilution buffer, and 2.5 μL 4×pATR/ATRIP working solution was added to the 384-well analysis plate. 4×ATP working solution (2 mM) was prepared with deionized water, 2.5 μL 4×ATP working solution was added to the 384-well analysis plate, and incubated at room temperature in dark for 30 minutes. 5 μL stop solution was added to the 384 analysis plate. Finally, 5 μL test mixture (0.084 ng/μL Anti-phospho-p53(ser15)-K and 5 ng/μL Anti-GST-d2) was added to the 384 well analysis plate, incubated overnight at room temperature, and the fluorescence signal was detected with ENVISION (Perkinelmer) instrument (excitation wavelength: 320 nm, emission wavelength: 665 nm and 615 nm). The inhibition rate in each well was calculated by the fluorescence intensity value of each hole: ER (Emission Ratio)=(Fluorescence intensity at 665 nm/Fluorescence intensity at 615 nm); inhibition rate=(ER positive-ER test compound)/(ER positive-ER negative)×100%, the IC50 value of compounds were calculated by standard parameter fitting software (GraphPad Prism 6.0).

[4] = In vivo pharmacokinetics assay in mice; conditions: mouse; male ICR mice, oral gavage 10 mg/kg, plasma
Protocol: The in vivo pharmacokinetics of the compounds was studied.
Male ICR mice (3 in each group) were orally administered by gavage with a dose of 10 mg/kg. Plasma samples were collected before (0 h) and after administration (0.25, 0.5, 1, 2, 4, 6, 8, 24 h), and the collected samples were analyzed by LC/MS and data were collected. The collected analytical data were used to calculate the relevant pharmacokinetic parameters by Analyst v1.6.2 (AB Applied Biosystems Company, USA).

| SMILES | half-life at 2 nM [1] | half-life at 2 nM [2] | IC50 ([3]; Homo sapiens) | IC50 (MV4-11 (leukemia) cells; Homo sapiens, MV4-11, 120 h) | IC50 (ATR kinase) | AUC [4] | Cmax [4] | Tmax [4] | half-life [4] | IC50 [3] | IC50 (MV4-11 (leukemia) cells; 120 hours) |
| --- | --- | --- | --- | --- | --- | --- | --- | --- | --- | --- | --- |
| Cc1nn(C2CCNCC2)c(C(F)(F)F)c1-c1cc(N2CCOC[C@H]2C)nc(-c2ccnc3[nH]ccc23)n1 [Compound D1] | 1.03 h | 5.63 h | 260 nM | 120 nM | 5 nM |  |  |  |  |  |  |
| Cc1nn(C2CCNCC2)c(C(F)(F)F)c1-c1cc(N2CCOC[C@H]2C)nc(-c2cccc3[nH]ccc23)n1 [Compound D17] | 2.83 h | 5.05 h | 230 nM | 140 nM | 1 nM |  |  |  |  |  |  |
| Cc1nn(C2CCNCC2)c(C(F)(F)F)c1-c1cc(N2CCOC[C@H]2C)nc(-c2cc(F)cc3[nH]ccc23)n1 [Compound D28] |  |  | 280 nM | 230 nM | < 1 nM | 2160 ng·h/mL | 199 ng/mL | 4.7 h | 3.9 h |  |  |
| Cc1nn(C2CCNCC2)c(C(F)(F)F)c1-c1cc(N2CCOC[C@H]2C)nc(-n2c(NC(=O)C3CC3)nc3ccccc32)n1 [Compound D21] |  |  | 140 nM | 190 nM | 2 nM |  |  |  |  |  |  |
| CNc1nc2ccccc2n1-c1nc(-c2c(C)nn(C3CCNCC3)c2C(F)(F)F)cc(N2CCOC[C@H]2C)n1 [Compound D24] | 1.83 h | 3.38 h | 120 nM | 80 nM |  | 5450 ng·h/mL | 467 ng/mL | 5.3 h | 3.1 h |  |  |
| Cc1c(-c2cc(N3CCOC[C@H]3C)nc(-c3cccc4[nH]ccc34)n2)c(C(F)(F)F)nn1C1CCNCC1 [Compound D18] |  |  | 510 nM | 280 nM | < 1 nM |  |  |  |  |  |  |
| Cc1nn(C2CCN(C)CC2)c(C)c1-c1cc(N2CCOC[C@H]2C)nc(-c2ccnc3[nH]ccc23)n1 [Compound D4] |  |  |  |  | 6 nM |  |  |  |  | 330 nM | 190 nM |
| CC(=O)Nc1nc2ccccc2n1-c1nc(-c2c(C)nn(C3CCNCC3)c2C(F)(F)F)cc(N2CCOC[C@H]2C)n1 [Compound D8] |  |  | 430 nM | 220 nM | 3 nM |  |  |  |  |  |  |
| CNc1nc2cc(F)ccc2n1-c1nc(-c2c(C(F)(F)F)nn(C3CCCNC3)c2C)cc(N2CCOC[C@H]2C)n1 (stereo partly shown) [Compound D33] |  |  |  |  | 13 nM |  |  |  |  | 1450 nM | 1310 nM |
| CNc1nc2ncccc2n1-c1nc(-c2c(C)nn(C3CCNCC3)c2C(F)(F)F)cc(N2CCOC[C@H]2C)n1 [Compound D26] |  |  |  |  | 12 nM |  |  |  |  | 3580 nM | 3090 nM |

Results, then the molecule that gave them:

| half-life at 2 nM [1] | half-life at 2 nM [2] | IC50 ([3]; Homo sapiens) | IC50 (MV4-11 (leukemia) cells; Homo sapiens, MV4-11, 120 h) | IC50 (ATR kinase) | AUC [4] | Cmax [4] | Tmax [4] | half-life [4] | IC50 [3] | IC50 (MV4-11 (leukemia) cells; 120 hours) | SMILES |
| --- | --- | --- | --- | --- | --- | --- | --- | --- | --- | --- | --- |
|  |  | 860 nM | 1230 nM | 3 nM |  |  |  |  |  |  | CNc1nc2cc(F)ccc2n1-c1nc(-c2c(C)nn(CC3CCCNC3)c2C(F)(F)F)cc(N2CCOC[C@H]2C)n1 (stereo partly shown) [Compound D39] |
|  |  |  |  | 10 nM |  |  |  |  | 920 nM | 640 nM | CNc1nc2ccccc2n1-c1nc(-c2c(C(F)(F)F)nn(C3CCCNC3)c2C)cc(N2CCOC[C@H]2C)n1 (stereo partly shown) [Compound D45] |
|  |  |  |  | 2 nM |  |  |  |  | 370 nM | 590 nM | Cc1nn(C[C@@H]2CCCN2)c(C(F)(F)F)c1-c1cc(N2CCOC[C@H]2C)nc(-c2cc(F)cc3[nH]ccc23)n1 [Compound D52] |
|  |  | 940 nM | 570 nM | 29 nM |  |  |  |  |  |  | CNc1nc2cc(F)ccc2n1-c1nc(-c2c(C)nn(CS(C)(=O)=O)c2C(F)(F)F)cc(N2CCOC[C@H]2C)n1 [Compound D41] |
|  |  | 2010 nM | 1730 nM | 97 nM |  |  |  |  |  |  | CNc1nc2cc(F)ccc2n1-c1nc(-c2c(C(F)(F)F)nn(CS(C)(=O)=O)c2C)cc(N2CCOC[C@H]2C)n1 [Compound D42] |

Reference: patent US12544382B2, “2, 4, 6-tri-substituted pyrimidine compound as ATR kinase inhibitor” (BEIJING TIDE PHARMACEUTICAL CO., LTD., priority 2019, dated 2026)
